The structures appear in SMILES notation. pEC50: −log10 of the molar value. Like-named read-outs stand apart in the source and are kept apart here.

For one assay, the system named is HBV. Put plainly: HBV infection in HepG2-NTCP cells (HBeAg AlphaLISA in supernatants). The class given is cell-based. To be noted: Hepatitis B virus, 192 h; for pEC50: HBV infection of HepG2-NTCP cells, HBeAg in supernatants at day 8 post infection, read-out: Cellular EC50; for EC50: read-out: Cellular EC50 (μM). An outline of the steps: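 Readout was day-8 supernatant HBeAg by AlphaLISA, with EC50 set against DMSO controls and binned A<0.1 μM, B 0.1-1 μM, C>1 μM. Compounds were added 2 h before HBV (2000 GE/cell, 4% PEG, 0.5% DMSO) to HepG2-NTCP A3 cells; from day 1 medium held 2.5% DMSO.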

Another assay deals with HDV. Nature of the assay: HDV infection in primary human hepatocytes (PHHs) and RNA quantification (RT-qPCR). The format is cell-based. The note with it: Hepatocyte, 192 h, HDV infection of primary human hepatocytes, viral RNA at day 8 post infection. From the text: Primary human hepatocytes (Thermo Fisher Scientific) were thawed in Williams E Medium with CM3000 supplement pack (Thermo Fisher Scientific) and seeded at 70,000 cells/well on collagen-coated 96-well plate. Six hours post-seeding, cell medium was changed to Williams E Medium with CM4000 cell maintenance supplement pack for further culture (Thermo Fisher Scientific). HDV virus collected from the supernatants of HuH7-END cells was purified in the presence of 6% polyethylene glycol (PEG). Viral titer was then quantified by RT-qPCR using HDV specific primers against a reference standard. On the day of infection, compounds were 4-fold serially diluted in DMSO and pre-incubated with PHHs for two hours before infecting with 100 GE/cell of HDV in 4% PEG. On day one post infection, HDV-containing media was aspirated, cells were washed once with PBS and then maintained in 2.5% DMSO containing media for the remainder of the assay. Viral RNA was isolated using RNeasy kits at day 8 post infection and reverse transcribed into cDNA using High-Capacity RNA-to-cDNA Kit. Relative HDV gene expression was quantified by RT-qPCR after normalization to expression of a housekeeping gene. Irrespective of readout, compound concentrations that reduce viral RNA by 50% relative to DMSO controls (EC50) are reported. EC50 ranges are as follows: A<0.1 μM; B 0.1-1 μM; C>1 μM.
On the technique in general: Quantitative PCR measures a nucleic acid by following its amplification.

The target of another assay is T1, NTCP (Homo sapiens, UniProt Q14973).
T1 construct: expressed in transfected cells; host or cells: HepG2-NTCP (clone A3, kept under puromycin)
T1 sequence (Q14973 1-349): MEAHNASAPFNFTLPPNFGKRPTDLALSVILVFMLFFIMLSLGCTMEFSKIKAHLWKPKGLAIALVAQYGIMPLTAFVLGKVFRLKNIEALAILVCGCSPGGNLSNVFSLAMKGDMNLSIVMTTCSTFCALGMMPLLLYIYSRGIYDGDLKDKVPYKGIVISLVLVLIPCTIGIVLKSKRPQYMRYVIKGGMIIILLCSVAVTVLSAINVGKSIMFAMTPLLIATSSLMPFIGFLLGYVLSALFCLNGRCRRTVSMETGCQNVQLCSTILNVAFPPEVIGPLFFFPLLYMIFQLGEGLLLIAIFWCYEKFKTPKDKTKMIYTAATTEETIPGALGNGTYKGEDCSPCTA
Put plainly: HepG2-NTCP preS1 binding competition assay (FITC-labeled myristoylated preS1 peptide). To be noted: HepG2-NTCP cells; competition with FITC-labeled preS1 peptide. The method, then: HepG2-NTCP preS1 Binding Competition Assay
Myristoylated preS1 peptide (2-48 aa) conjugated to a C-terminal FITC tag was synthesized to evaluate preS1 binding to NTCP-expressing cells. HepG2-NTCP cells seeded in 384-wells were pre-treated with compounds for 2 hours prior to the addition of FITC-labeled preS1 peptide. After co-incubation for 30 minutes, unbound FITC-preS1 peptide was washed twice with PBS, and the fluorescence of preS1-FITC bound to cell surface was detected by Envision plate reader. EC50 ranges are as follows: A<0.1 μM; B 0.1-1 μM; C>1 μM.

[1] abbreviates: Donor 1, read-out: Cellular EC50 (μM) Donor 1.
The mark [2] stands for this setting: Donor 2, read-out: Cellular EC50 (μM) Donor 2.

For `CN1[C@H](C2CCCCC2)CN(c2ccccc2)c2cc(OCc3ccsc3)c(-c3ccc(F)c(C(=O)O)c3)cc2S1(=O)=O` [Example 336], in the assay with HBV, the pEC50 – broadly, the negative decadic logarithm of the EC50, by convention in mol/L – is more than 7.00. Besides, the EC50 (usually the concentration giving half of the maximal effect) in the assay on HDV (setting [1]) was less than 0.1 µM.
For `CN1[C@H](C2CCCCC2)CN(c2ccccc2)c2cc(OC3CCC3)c(-c3ccc(F)c(C(=O)O)c3)cc2S1(=O)=O` [Example 376] the same measures were more than 7.00 and less than 0.1 µM.
For `CC(C)CN1C[C@@H](C2CCCCC2)N(C)S(=O)(=O)c2cc(-c3ccc(F)c(C(=O)O)c3)c(Cl)cc21` [Example 325], the pEC50 in the assay on HBV and on NTCP was more than 7.00 each time.
As to `CN1[C@H](C2CCCCC2)CN(c2ccccc2)c2cc(Cl)c(N3C[C@H]4C[C@@]4(C(=O)O)C3)cc2S1(=O)=O` [Example 615], the pEC50 with HBV is 6.00 to 7.00; at NTCP, more than 7.00.
Taken in the same sequence, the figures for `CCCCCN1C[C@@H](C2CCCCC2)N(C)S(=O)(=O)c2cc(-c3ccc(F)c(C(=O)O)c3)c(Cl)cc21` [Example 323] were more than 7.00 and more than 7.00.
For `CN1[C@H](C2CCCCC2)CN(c2ccccc2)c2cc(Cl)c(N3CCC(F)(C(=O)O)C3)cc2S1(=O)=O` (mixture of isomers) [Example 609, 1-((R)-7-chloro-3-cyclohexyl-2-methyl-1,1-dioxido-5-phenyl-2,3,4,5-tetrahydrobenzo[f][1,2,5]thiadiazepin-8-yl)-3-fluoropyrrolidine-3-carboxylic acid] the same measures were more than 7.00 and more than 7.00.
Taken in the same sequence, the figures for `COCCOc1cc2c(cc1-c1cc(F)c(C(=O)O)s1)S(=O)(=O)N(C)[C@H](C1CCCCC1)CN2c1ccccc1` [Example 486] were more than 7.00 and more than 7.00.
Regarding `CN1[C@H](C2CCCCC2)CN(c2ccccc2)c2cc(OC3CC3)c(-c3ccc(F)c(C(=O)O)c3)cc2S1(=O)=O` [Example 372], the pEC50 in the assay on HBV is more than 7.00. In addition, the half-maximal effective concentration (EC50) in the assay on HDV (setting [1]) is less than 0.1 µM.
Regarding `CCOc1ccccc1N1C[C@@H](C2CCCCC2)N(C)S(=O)(=O)c2cc(-c3ccc(F)c(C(=O)O)c3)c(Cl)cc21` [Example 307], the EC50 in the assay with HBV is more than 1 µM. This compound had a pEC50 at NTCP of less than 6.00.
Take `CCCCOC(=O)Nc1cc(-c2cc3c(cc2Cl)N(c2ccccc2)C[C@@H](C2CCCCC2)N(C)S3(=O)=O)sc1C(=O)O` [Example 246]: the pEC50 in the assay with HBV and on NTCP was more than 7.00 in each case.
Take `Cc1cc(-c2cc3c(cc2OCc2ccsc2)N(c2ccccc2)C[C@@H](C2CCCCC2)N(C)S3(=O)=O)sc1C(=O)O` [Example 514]: the pEC50 in the assay on HBV is more than 7.00. In addition, the EC50 with HDV (setting [1]) and in the assay on HDV (setting [2]) was less than 0.1 µM each time.
`CN1[C@H](C2CCCCC2)CN(c2ccccc2)c2cc(C34CC(C(F)(F)F)(C3)C4)c(-c3ccc(F)c(C(=O)O)c3)cc2S1(=O)=O` [Example 595]: the pEC50 in the assay with HBV and at NTCP was more than 7.00 throughout.
`CCOC(=O)Nc1cc(-c2cc3c(cc2Cl)N(c2ccccc2)C[C@@H](C2CCCCC2)N(C)S3(=O)=O)sc1C(=O)O` [Example 240]: the pEC50 with HBV and on NTCP was more than 7.00 each time.
In the case of `CCCCCCCOc1cc2c(cc1-c1ccc(F)c(C(=O)O)c1)S(=O)(=O)N(C)[C@H](C1CCCCC1)CN2c1ccccc1` [Example 353], the pEC50 in the assay with HBV is more than 7.00. Besides, the EC50 with HDV (setting [1]) is less than 0.1 µM.
With `CN1[C@H](C2CCCCC2)CN(c2ncco2)c2cc(Cl)c(-c3ccc(F)c(C(=O)O)c3)cc2S1(=O)=O` [Example 318], the EC50 in the assay on HBV was more than 1 µM. Besides, the negative logarithm of the EC50 (pEC50) on NTCP was less than 6.00.
As to `CCCCC1CN(c2ccccc2)c2cc(CN3CCCC3)c(-c3ccc(F)c(C(=O)O)c3)cc2S(=O)(=O)N1C` (stereo not shown) [Example 563, 5-(3-butyl-2-methyl-1,1-dioxido-5-phenyl-7-(pyrrolidin-1-ylmethyl)-2,3,4,5-tetrahydrobenzo[f][1,2,5]thiadiazepin-8-yl)-2-fluorobenzoic acid], the pEC50 in the assay on HBV is 6.00 to 7.00; on NTCP, more than 7.00.
Taken in the same sequence, the figures for `CN1[C@H](C2CCCCC2)CN(c2ccccc2)c2cc(F)c(-c3ccc(NC(=O)OCc4ccccc4)c(C(=O)O)c3)cc2S1(=O)=O` [Example 235, (R)-2-(((benzyloxy)carbonyl)amino)-5-(3-cyclohexyl-7-fluoro-2-methyl-1,1-dioxido-5-phenyl-2,3,4,5-tetrahydrobenzo[f][1,2,5]thiadiazepin-8-yl)benzoic acid] were more than 7.00 and more than 7.00.
Regarding `COc1ccccc1N1C[C@@H](C2CCCCC2)N(C)S(=O)(=O)c2cc(-c3ccc(F)c(C(=O)O)c3)c(Cl)cc21` [Example 304, (R)-5-(7-chloro-3-cyclohexyl-5-(2-methoxyphenyl)-2-methyl-1,1-dioxido-2,3,4,5-tetrahydrobenzo[f][1,2,5]thiadiazepin-8-yl)-2-fluorobenzoic acid], in the assay with HBV, the EC50 was more than 1 µM. On NTCP, this compound had a negative-log EC50 (pEC50) of less than 6.00.
With `Cc1cc(-c2cc3c(cc2OCC(F)(F)F)N(c2ccccc2)C[C@@H](C2CCCCC2)N(C)S3(=O)=O)sc1C(=O)O` [Example 512, (R)-5-(3-cyclohexyl-2-methyl-1,1-dioxido-5-phenyl-7-(2,2,2-trifluoroethoxy)-2,3,4,5-tetrahydrobenzo[f][1,2,5]thiadiazepin-8-yl)-3-methylthiophene-2-carboxylic acid], the pEC50 with HBV and at NTCP was more than 7.00 throughout.
On to `CN1[C@H](C2CCCCC2)CN(c2ccccc2)c2cc(OCc3c[nH]cn3)c(-c3ccc(F)c(C(=O)O)c3)cc2S1(=O)=O` [Example 391], for which the EC50 in the assay on HBV is more than 1 µM. Also, the negative-log EC50 (pEC50) on NTCP was less than 6.00.
On to `COCCOc1cc2c(cc1-c1ccc(F)c(C(=O)O)c1)S(=O)(=O)N(C)[C@H](C1CCCCC1)CN2c1ccccc1` [Example 388], for which the pEC50 in the assay with HBV and at NTCP was more than 7.00 in each case.
With `CN1[C@H](C2CCCCC2)CN(c2ccccc2)c2cc(Cl)c(N3C[C@H](C(=O)O)[C@@H](C(F)(F)F)C3)cc2S1(=O)=O` [Example 614], the pEC50 in the assay on HBV and at NTCP was more than 7.00 in each case.
As to `COC(C)(C)COC(=O)Nc1cc(-c2cc3c(cc2Cl)N(c2ccccc2)C[C@@H](C2CCCCC2)N(C)S3(=O)=O)sc1C(=O)O` [Example 239, (R)-5-(7-chloro-3-cyclohexyl-2-methyl-1,1-dioxido-5-phenyl-2,3,4,5-tetrahydrobenzo[f][1,2,5]thiadiazepin-8-yl)-3-(((2-methoxy-2-methylpropoxy)carbonyl)amino)thiophene-2-carboxylic acid], the pEC50 in the assay on HBV and at NTCP was more than 7.00 throughout.
Consider `CN1[C@H](C2CCCCC2)CN(c2ccccc2)c2cc(Cl)c(N3C[C@H](C(=O)O)[C@@H](c4ccccc4)C3)cc2S1(=O)=O` [Example 612], for which the pEC50 was more than 7.00 in the assay on HBV and 6.00 to 7.00 at NTCP.
Taken in the same sequence, the figures for `COc1cc2c(cc1-c1ccc(F)c(C(=O)O)c1)S(=O)(=O)N(C)[C@H](C1CCCCC1)CN2c1ccccc1` [Example 348] were more than 7.00 and more than 7.00.
For `CN1[C@H](C2CCCCC2)CN(C2CCOCC2)c2cc(Cl)c(-c3ccc(F)c(C(=O)O)c3)cc2S1(=O)=O` [Example 321] the same measures were 6.00 to 7.00 and 6.00 to 7.00.
With `CN1[C@H](C2CCCCC2)CN(c2ccccc2)c2cc(F)c(-c3cc(F)c(C(=O)O)s3)cc2S1(=O)=O` [Example 128, (R)-5-(3-cyclohexyl-7-fluoro-2-methyl-1,1-dioxido-5-phenyl-2,3,4,5-tetrahydrobenzo[f][1,2,5]thiadiazepin-8-yl)-3-fluorothiophene-2-carboxylic acid], in the assay on HBV, the pEC50 is more than 7.00. The EC50 in the assay with HDV (setting [2]) is less than 0.1 µM.
